The test system of data set [1] is nontumorigenic cell lines. The text has this: (§1) It is critical to evaluate the balance between the safety and efficacy of drugs for the development of new drugs; thus, we then conducted a cytotoxicity test on […] types of nontumorigenic cell lines from different origins, including LO2 (human normal liver cells), HK2 (human kidney proximal convoluted tubule epithelial cells), HLF (human embryonic lung fibroblast), 293A (human embryonic kidney cells), and HUVEC (human umbilical vein endothelial cells). […] In addition, we evaluated the compound’s safety in vivo by performing acute toxicity tests in mice, and 9j was injected intravenously at concentrations of 100 mg/kg, 150 mg/kg, and 300 mg/kg.
(§2) A total of 7000 cells per well were seeded in a 96-well plate with at least three technical replicates; then, exposed to different concentrations (10, 5, 1, 0.1, 0.05, 0.01 uM) of the test compounds for 72 h. After the treatment, CCK8 (Sigma, St. Louis, MO, USA) was added to each well under sterile conditions (to a final concentration of 10% of the total volume) and the plates were incubated for 2–4 h at 37 °C. Absorbance was measured at 450 nm in a microplate reader.

Another data set deals with H1975 cells. Kind of data set: Apoptosis assay by flow cytometry (annexin V / PI). Conditions: 48 h, control 6.07%. The format is cell-based, human. The text has this: The death of cells occurs by apoptosis, and the uncontrolled division and multiplication of cells causes cancer. Inhibiting cellular apoptosis is primarily responsible for cancer cell survival, since cellular apoptosis is negatively correlated with cell growth. We then verified the antitumor effect of compound 9j by inducing apoptosis through flow cytometry.
To assay the number of apoptotic cells, cells were stained with allo-phycocyanin–annexin V (#550475, BD Pharmingen, Becton Drive Franklin Lakes, NJ, USA) for 15 min; then, they were washed and resuspended in 1:500 propidium iodide (#81845, Sigma-Aldrich, St. Louis, Mo, USA) viability marker, and acquired on LSRFortessa. Data were analyzed with FlowJo software. Annexin V+ cells were considered as apoptotic cells.
On the technique in general: In flow cytometry, cells or beads pass a laser one at a time.

Data set [2] deals with phosphorylated ALK (p-ALK). Kind of data set: Immunofluorescence assay of phosphorylated ALK. The format is cell-based, human. Particulars: fluorescence assay, treatment for 2 to 4 h. The procedure:
(§3) Four kinases (EGFR, EGFR^L858R/T790M, ALK, and EML4-ALK) were tested using an ELISA assay. […] There was no effect on the wild-type EGFR or ALK kinases triggered by the compound. Consequently, the selection of the compound was good as both compounds balanced IC50 against EGFR and ALK, respectively. […] Following that, fluorescence assays were used to measure the phosphorylation of the EGFR and ALK protein affect with compound 9j at the cellular level. […] Next, WB assay was used to test the protein expression of H1975 and H2228 cells at the concentration of 5, 10, and 100 nM.
Figure 2 (A) The activity of compound 9j against four kinases (EGFR, ALK, EGFR ^L858R T790M, and EML4-ALK). (B) H1975 and H2228 cells were treated with 9j for 2–4 h; the staining for phosphorylated EGFR (p-EGFR) and phosphorylated ALK (p-ALK) was shown as red fluorescence. (C) WB analysis of phosphorylated proteins in drug-treated H1975 and H2228 cells.

The target of another data set is EGFR wild-type kinase (Homo sapiens, UniProt P00533). Kind of data set: Kinase ELISA assay, wild-type EGFR. The format is biochemical. The procedure: as §3
The target of a further data set is ALK wild-type kinase (Homo sapiens, UniProt Q9UM73). Briefly: Kinase ELISA assay, wild-type ALK. The format is biochemical. On the procedure: as §3
On the technique in general: In an ELISA, binding on a coated surface is turned into a signal by an enzyme label.

Another data set deals with p-EGFR. Kind of data set: Western blot, p-EGFR. The format is cell-based, human. Particulars: WB, 5, 10 and 100 nM, 3 h treatment. The procedure:
as §3
(§4) H1975 (H2228) cells seeded in 60 mm dishes at a density of 5 × 10^5 cells/well were incubated with or without compound 9j (0, 5, 10, 100 nM) for 2–4 h. After treatment, cells were stained as previously described.
On the technique in general: Immunoblotting shows a protein as a band on a membrane.

The next data set concerns p-ERK. Kind of data set: Western blot, p-ERK. The format is cell-based, human. Particulars: WB, 5, 10 and 100 nM, 3 h treatment. The procedure:
as §3, §4

Another data set deals with p-ALK. Briefly: Western blot, p-ALK. The format is cell-based, human. Conditions: WB, 5, 10 and 100 nM, 3 h treatment. The procedure: as §3, §4
For a further data set, the target named is EGFR^L858R/T790M (Homo sapiens, UniProt P00533, L858R/T790M). Briefly: Kinase ELISA assay, EGFR L858R/T790M. The format is biochemical. Conditions: read-out: IC50 against EGFR^L858R/T790M. On the procedure: as §3
For data set [3], the system named is LO2 (human normal liver cells). Kind of data set: Cytotoxicity test on nontumorigenic cells, LO2. The format is cell-based.
Text: as §1, §2

A further data set deals with mice. Kind of data set: Acute toxicity test in mice. Particulars: injected intravenously, 100, 150 and 300 mg/kg (Figure S1).
Text: as §1

The subject of the next data set is H2228 (EML4-ALK) cells. Kind of data set: CCK8 antiproliferative assay, H2228 cells. The format is cell-based, human. Particulars: Homo sapiens, NCI-H2228, 72 h, CCK8 assay, 72 h, H2228 (EML4-ALK); read-out: IC50 H2228. The source says:
The human cancer cell lines (H1975, H2228) used in this study were purchased from the Guangzhou ginny ou biotechnology Co., Ltd. (Guangzhou, China). The human cancer cell lines (NCI-H522) used in this study were purchased from the Shenzhen Haodi Huatuo Biotechnology Co., LTD (Shenzhen, China). The human cancer cell lines (LOVO, HLF, BJ, LO2) used in this study were purchased from the Laboratory Animal Service Center at Sun Yat-sen University (Guangzhou, China). […] Cell lines LOVO, HLF, BJ, and LO2 were cultivated in DMEM containing 10% (v/v) heat-inactivated fetal bovine serum (FBS), 100 units/mL penicillin, and 100 μg/mL streptomycin.

Sequence of ALK wild-type kinase (Q9UM73 19-1620): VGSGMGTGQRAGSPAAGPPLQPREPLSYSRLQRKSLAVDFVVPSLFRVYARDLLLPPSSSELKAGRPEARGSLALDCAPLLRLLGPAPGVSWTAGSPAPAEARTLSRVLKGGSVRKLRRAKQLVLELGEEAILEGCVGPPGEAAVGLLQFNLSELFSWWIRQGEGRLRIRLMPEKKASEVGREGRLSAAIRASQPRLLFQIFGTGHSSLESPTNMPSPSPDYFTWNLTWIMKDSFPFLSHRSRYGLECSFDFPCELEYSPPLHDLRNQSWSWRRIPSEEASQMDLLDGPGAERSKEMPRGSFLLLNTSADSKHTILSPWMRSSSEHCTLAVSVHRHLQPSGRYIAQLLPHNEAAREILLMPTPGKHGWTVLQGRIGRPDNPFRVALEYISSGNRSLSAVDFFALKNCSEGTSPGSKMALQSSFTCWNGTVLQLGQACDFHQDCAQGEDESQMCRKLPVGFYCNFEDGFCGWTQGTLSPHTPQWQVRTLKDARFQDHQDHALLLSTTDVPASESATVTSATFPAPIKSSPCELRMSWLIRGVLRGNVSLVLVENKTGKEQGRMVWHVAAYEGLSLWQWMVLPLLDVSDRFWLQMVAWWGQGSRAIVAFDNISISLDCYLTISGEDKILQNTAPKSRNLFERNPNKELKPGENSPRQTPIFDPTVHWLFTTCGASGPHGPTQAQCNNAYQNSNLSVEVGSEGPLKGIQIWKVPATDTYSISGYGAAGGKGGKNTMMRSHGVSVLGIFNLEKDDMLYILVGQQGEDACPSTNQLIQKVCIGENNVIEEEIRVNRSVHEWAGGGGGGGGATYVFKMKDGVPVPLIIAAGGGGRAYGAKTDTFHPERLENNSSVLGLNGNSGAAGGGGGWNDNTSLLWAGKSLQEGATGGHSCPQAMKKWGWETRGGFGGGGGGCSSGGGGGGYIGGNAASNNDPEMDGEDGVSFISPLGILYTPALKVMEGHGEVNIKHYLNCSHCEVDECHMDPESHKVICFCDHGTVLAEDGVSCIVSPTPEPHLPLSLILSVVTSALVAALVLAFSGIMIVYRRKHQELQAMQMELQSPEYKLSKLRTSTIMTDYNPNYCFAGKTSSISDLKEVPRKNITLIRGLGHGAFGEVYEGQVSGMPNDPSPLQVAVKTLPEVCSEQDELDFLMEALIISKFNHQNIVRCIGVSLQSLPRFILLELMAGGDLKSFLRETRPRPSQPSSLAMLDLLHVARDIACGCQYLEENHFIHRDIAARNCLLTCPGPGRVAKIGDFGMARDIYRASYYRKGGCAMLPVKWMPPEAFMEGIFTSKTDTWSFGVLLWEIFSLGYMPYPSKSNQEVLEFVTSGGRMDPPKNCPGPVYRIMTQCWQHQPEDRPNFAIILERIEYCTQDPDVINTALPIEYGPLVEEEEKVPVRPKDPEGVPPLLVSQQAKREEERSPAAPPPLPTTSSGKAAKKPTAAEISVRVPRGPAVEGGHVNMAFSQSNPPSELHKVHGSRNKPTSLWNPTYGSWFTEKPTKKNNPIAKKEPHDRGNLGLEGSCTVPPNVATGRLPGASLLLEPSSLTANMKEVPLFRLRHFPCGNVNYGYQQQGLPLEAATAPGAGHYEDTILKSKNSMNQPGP
Sequence of EGFR^L858R/T790M (P00533 25-1210 T790M/L858R): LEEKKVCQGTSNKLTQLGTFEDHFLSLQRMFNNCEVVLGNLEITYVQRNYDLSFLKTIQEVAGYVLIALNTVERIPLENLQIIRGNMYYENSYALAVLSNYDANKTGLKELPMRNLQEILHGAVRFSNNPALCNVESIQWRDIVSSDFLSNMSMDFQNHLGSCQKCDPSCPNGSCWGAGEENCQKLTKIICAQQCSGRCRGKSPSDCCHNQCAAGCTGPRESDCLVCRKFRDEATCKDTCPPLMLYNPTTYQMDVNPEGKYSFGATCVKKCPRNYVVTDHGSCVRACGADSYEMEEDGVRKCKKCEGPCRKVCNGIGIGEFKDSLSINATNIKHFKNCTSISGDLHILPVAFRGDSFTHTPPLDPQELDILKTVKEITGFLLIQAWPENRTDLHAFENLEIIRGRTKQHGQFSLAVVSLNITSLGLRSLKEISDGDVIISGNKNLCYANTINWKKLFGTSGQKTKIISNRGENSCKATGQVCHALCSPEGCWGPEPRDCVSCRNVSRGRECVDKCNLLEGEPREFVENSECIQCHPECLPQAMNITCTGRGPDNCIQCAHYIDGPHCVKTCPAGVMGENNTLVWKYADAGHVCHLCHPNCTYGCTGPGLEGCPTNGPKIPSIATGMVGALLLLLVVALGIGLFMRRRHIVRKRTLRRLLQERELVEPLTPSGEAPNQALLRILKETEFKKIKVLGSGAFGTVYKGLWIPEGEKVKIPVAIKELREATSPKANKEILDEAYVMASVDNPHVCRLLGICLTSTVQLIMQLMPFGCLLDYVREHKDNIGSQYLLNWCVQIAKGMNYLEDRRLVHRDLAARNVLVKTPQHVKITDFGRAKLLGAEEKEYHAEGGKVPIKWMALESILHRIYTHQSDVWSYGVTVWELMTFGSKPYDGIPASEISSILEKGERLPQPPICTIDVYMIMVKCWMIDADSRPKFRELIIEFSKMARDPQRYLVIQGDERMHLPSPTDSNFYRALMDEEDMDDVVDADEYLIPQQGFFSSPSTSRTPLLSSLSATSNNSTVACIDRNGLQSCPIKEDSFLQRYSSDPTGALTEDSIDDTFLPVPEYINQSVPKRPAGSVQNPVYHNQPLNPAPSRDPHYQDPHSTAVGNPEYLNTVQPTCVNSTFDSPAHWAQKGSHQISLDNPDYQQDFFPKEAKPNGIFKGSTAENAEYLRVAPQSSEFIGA
Sequence of EGFR wild-type kinase (P00533 25-1210): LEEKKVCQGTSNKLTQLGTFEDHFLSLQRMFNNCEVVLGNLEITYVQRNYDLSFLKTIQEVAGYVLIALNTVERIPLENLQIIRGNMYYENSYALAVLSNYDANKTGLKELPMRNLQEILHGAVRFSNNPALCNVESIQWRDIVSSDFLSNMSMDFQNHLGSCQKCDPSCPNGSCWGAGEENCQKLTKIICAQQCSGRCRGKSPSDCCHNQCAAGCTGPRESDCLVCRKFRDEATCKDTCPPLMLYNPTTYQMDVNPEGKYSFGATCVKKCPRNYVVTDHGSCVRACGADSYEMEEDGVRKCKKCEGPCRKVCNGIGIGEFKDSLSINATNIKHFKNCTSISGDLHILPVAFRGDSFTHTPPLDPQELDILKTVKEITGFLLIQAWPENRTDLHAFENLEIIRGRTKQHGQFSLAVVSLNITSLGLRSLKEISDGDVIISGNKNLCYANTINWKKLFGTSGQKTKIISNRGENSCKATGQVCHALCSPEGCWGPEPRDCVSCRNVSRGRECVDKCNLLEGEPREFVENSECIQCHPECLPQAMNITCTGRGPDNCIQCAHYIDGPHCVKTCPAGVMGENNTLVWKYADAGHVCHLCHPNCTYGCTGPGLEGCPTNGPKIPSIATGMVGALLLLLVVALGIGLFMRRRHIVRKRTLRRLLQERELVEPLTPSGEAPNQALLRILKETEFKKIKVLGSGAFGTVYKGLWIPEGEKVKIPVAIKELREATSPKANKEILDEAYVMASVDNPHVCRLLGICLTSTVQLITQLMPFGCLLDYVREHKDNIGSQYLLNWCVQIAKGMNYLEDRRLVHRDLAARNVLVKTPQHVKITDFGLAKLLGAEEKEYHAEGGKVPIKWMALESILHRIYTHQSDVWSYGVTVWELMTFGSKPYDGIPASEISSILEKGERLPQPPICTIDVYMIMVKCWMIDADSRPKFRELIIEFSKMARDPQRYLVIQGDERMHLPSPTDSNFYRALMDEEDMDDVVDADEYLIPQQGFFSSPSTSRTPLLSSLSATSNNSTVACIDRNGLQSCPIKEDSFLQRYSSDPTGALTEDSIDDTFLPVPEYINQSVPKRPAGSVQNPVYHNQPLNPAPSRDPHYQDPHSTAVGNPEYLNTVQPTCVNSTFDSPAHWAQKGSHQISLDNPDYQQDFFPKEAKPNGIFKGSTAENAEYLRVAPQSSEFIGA

For `C=CC(=O)Nc1cc(Nc2ncc(Cl)c(Nc3ccc(Cl)cc3[S+]([O-])C(C)C)n2)c(OC)cc1C1CCN(C)CC1` (stereo not drawn) [9j, N-(5-((5-Chloro-4-((4-chloro-2-(isopropylsulfinyl)phenyl)amino)pyrimidin-2-yl)amino)-4-methoxy-2-(1-methylpiperidin-4-yl)phenyl)acrylamide], the “toxicity toward the nontumorigenic cell lines” value in data set [1] is “very little apparent toxicity”. The figures for the apoptotic rate in the data set on H1975 cells (10 nM), in the data set on H1975 cells (50 nM) and in the data set with H1975 cells (100 nM) were 12.7%, 26.8% and 47.67%, respectively. In addition, the “expression level of phosphorylated ALK protein” value in [2] is listed as “decreased significantly”. In addition, the IC50 against EGFR wild-type kinase stood at 236 ± 27 nM; on ALK wild-type kinase it was 130 ± 15 nM; at EGFR^L858R/T790M, 35.7 ± 0.9 nM; in data set [3] (Homo sapiens, LO2, mean ± SE, read-out: Toxicity to normal cells, IC50 LO2) it was 23960 ± 30 nM; in the data set with H2228 (EML4-ALK) cells it was 81.8 ± 20 nM. Besides, the “expression of p-EGFR” value in the data set on p-EGFR is listed as “inhibited”. The “expression of p-ERK” value in the data set with p-ERK was “inhibited”. Moreover, the “expression of p-ALK” value with p-ALK is “inhibited”. Also, the “Selectivity Ratio (IC50 human normal cells)/(IC50 H1975), LO2” value in data set [3] (LO2 vs H1975) was found to be 306.1. Also, the “HE staining of lung and heart tissues” value in the data set with mice is given as “did not indicate toxicity”.

The values are drawn from PMC10004195, “Novel Dual-Target Kinase Inhibitors of EGFR and ALK Were Designed, Synthesized, and Induced Cell Apoptosis in Non-Small Cell Lung Cancer” (Molecules, 2023).
